Laboratory results as given in PubChem BioAssay AID743341 (Broad Institute, 2014).
Records with an inconclusive call do not appear. Active and inactive are the calls of the source.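 How the source made its calls: active means fitted curve of myotube length rescue reaches 40% at or below the top valid tested dose in every replicate test; inconclusive means replicate tests give mixed outcomes; inactive means every replicate test inactive, including effects in the opposite direction.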

Test system: C2C12 myotubes + simvastatin, MHC imaging tube length, 48 h
Assay: suppression of statin-driven myotube degradation – imaging, C2C12 myotubes, MHC immunostaining, dry powder, orthogonal assay for statin myotoxicity suppressor project, confirmation (AID 743341)
Conditions: not given
C[C@@H]1CN([C@@H](C)CO)C(=O)c2cccc(NC(=O)Nc3ccc4c(c3)OCO4)c2O[C@H]1CN(C)Cc1ccc(C(=O)Nc2ccccc2N)cc1 showed an AC40 of 7.66 µM.
C[C@@H]1CN([C@@H](C)CO)C(=O)c2cc(NC(=O)Cc3cn(C)c4ccccc34)ccc2O[C@H]1CN(C)Cc1ccc(C(=O)Nc2ccccc2N)cc1 gave an AC40 of 10.9 µM.
In the case of C[C@H]1CN([C@@H](C)CO)C(=O)Cc2cc(NC(=O)CCCCCC(=O)Nc3ccccc3N)ccc2O[C@H]1CN(C)Cc1ccc(C(F)(F)F)cc1, the AC40 is reported as 10.3 µM.
With C[C@H](CO)N1C[C@H](C)[C@H](CN(C)Cc2ccc(C(=O)Nc3ccccc3N)cc2)Oc2ccc(NC(=O)Nc3ccc(F)cc3)cc2CC1=O the AC40 was 0.655 µM.
Compound C[C@@H]1CN([C@@H](C)CO)C(=O)c2cc(NC(=O)Cc3cn(C)c4ccccc34)ccc2O[C@@H]1CN(C)Cc1ccc(C(=O)Nc2ccccc2N)cc1 has an AC40 of 10.5 µM.
With N#C[C@@H]1[C@@H](c2ccc(-c3ccc(F)cc3)cc2)[C@H](CO)N1C(=O)Cc1ccccc1 the AC40 was 15 µM.
C[C@H](CO)N1C[C@H](C)[C@H](CN(C)Cc2ccc(C(=O)Nc3ccccc3N)cc2)Oc2ccc(N(C)C)cc2C1=O gave an AC40 of 0.581 µM.
For C[C@@H]1CN([C@H](C)CO)C(=O)c2cccc(NC(=O)c3nc4ccccc4s3)c2O[C@@H]1CN(C)Cc1ccc(C(=O)Nc2ccccc2N)cc1, the AC40 was 1.79 µM.
C[C@H]1CN([C@@H](C)CO)C(=O)Cc2cc(NC(=O)CCCCCC(=O)Nc3ccccc3N)ccc2O[C@H]1CN(C)Cc1ccc(Oc2ccccc2)cc1 showed an AC40 of 3.07 µM.
For C[C@H]1CN([C@@H](C)CO)C(=O)Cc2cc(NC(=O)Nc3cccc4ccccc34)ccc2O[C@H]1CN(C)Cc1ccc(C(=O)Nc2ccccc2N)cc1, the AC40 was 4.57 µM.
In the case of CC(C)=CCC/C(C)=C/CC/C(C)=C/CC/C(C)=C/CO, the AC40 is reported as 4.25 µM.
C[C@H]1CN([C@@H](C)CO)C(=O)c2cc(N(C)C)ccc2O[C@@H]1CN(C)Cc1ccc(C(=O)Nc2ccccc2N)cc1 showed an AC40 of 1.55 µM.
Work on C[C@@H]1CN([C@H](C)CO)C(=O)c2cc(NC(=O)Nc3cccc4ccccc34)ccc2O[C@@H]1CN(C)Cc1ccc(C(=O)Nc2ccccc2N)cc1 yielded an AC40 of 6.47 µM.
Work on C[C@@H]1CN([C@H](C)CO)C(=O)c2cccc(NC(=O)Nc3ccc4c(c3)OCO4)c2O[C@H]1CN(C)Cc1ccc(C(=O)Nc2ccccc2N)cc1 yielded an AC40 of 0.76 µM.
C[C@H]1CN([C@@H](C)CO)C(=O)Cc2cc(NC(=O)CCCCCC(=O)Nc3ccccc3N)ccc2O[C@H]1CN(C)CC1CCCCC1 gave an AC40 of 8.03 µM.
C[C@H](CO)N1C[C@H](C)[C@H](CN(C)CC2CCCCC2)Oc2ccc(NC(=O)CCCCCC(=O)Nc3ccccc3N)cc2CC1=O showed an AC40 of 13.2 µM.
In the case of C[C@H]1CN([C@@H](C)CO)C(=O)c2cc(C#Cc3ccncc3)cnc2O[C@@H]1CN(C)CC1CCCC1, the AC40 is reported as 8.86 µM.
C[C@H](CO)N1C[C@H](C)[C@@H](CN(C)Cc2ccc(C(=O)Nc3ccccc3N)cc2)Oc2ccc(NC(=O)Cc3cn(C)c4ccccc34)cc2C1=O showed an AC40 of 10.2 µM.
C[C@H](CO)N1C[C@H](C)[C@H](CN(C)Cc2ccc(C(=O)Nc3ccccc3N)cc2)Oc2ccc(NC(=O)Nc3cccc4ccccc34)cc2C1=O showed an AC40 of 5.9 µM.
Work on C[C@H]1CN([C@@H](C)CO)S(=O)(=O)c2ccc(C#Cc3ccc(F)cc3)cc2O[C@@H]1CN(C)S(=O)(=O)c1cn(C)cn1 yielded an AC40 of 13 µM.
Work on C[C@H]1CN([C@@H](C)CO)S(=O)(=O)c2ccc(C#CC3CC3)cc2O[C@H]1CN(C)C(=O)Nc1cc(F)ccc1F yielded an AC40 of 19.5 µM.
Compound C[C@@H]1CN([C@H](C)CO)C(=O)Cc2cc(NC(=O)C3CCCCC3)ccc2O[C@H]1CN(C)Cc1ccc(Cl)c(Cl)c1 has an AC40 of 7.84 µM.

Test system: not listed separately
Assay: as above
Conditions: C2C12 myotubes + simvastatin, MHC imaging tube length, 48 h; at 19.5 µM (top of the series)
With COc1ccc(S(=O)(=O)N(C)C[C@H]2Oc3c(NC(=O)Nc4ccccc4)cccc3C(=O)N([C@H](C)CO)C[C@H]2C)cc1 the rescue of myotube length was 3.68% (inactive).
In the case of N#C[C@H]1[C@H](c2ccc(-c3cccc(F)c3)cc2)[C@H](CO)N1C(=O)NC1CCCC1, the rescue of myotube length is reported as 14.9% (inactive).
With Cc1noc(C)c1S(=O)(=O)Nc1ccc2c(c1)CC(=O)N([C@H](C)CO)C[C@H](C)[C@@H](CN(C)Cc1ccc(C(F)(F)F)cc1)O2 the rescue of myotube length was -1.01% (inactive).
In the case of N#C[C@@H]1[C@H](c2ccc(-c3cccc(F)c3)cc2)[C@@H](CO)N1C(=O)NC1CCCC1, the rescue of myotube length is reported as 12.9% (inactive).
With C[C@H](CO)N1C[C@H](C)[C@@H](CN(C)Cc2ccc(Oc3ccccc3)cc2)Oc2c(NC(=O)Nc3cccc4ccccc34)cccc2C1=O the rescue of myotube length was 14.7% (inactive).
For N#C[C@H]1[C@@H](c2ccc(-c3cccc(F)c3)cc2)[C@H](CO)N1C(=O)NC1CCCC1, the rescue of myotube length was 8.46% (inactive).
For O=C(C[C@H]1CC[C@@H]2[C@H](COC[C@H](O)CN2CCC(F)(F)F)O1)NCc1ccc(Oc2ccccc2)cc1, the rescue of myotube length was 5.97% (inactive).
For N#C[C@H]1[C@H](c2ccc(C#Cc3ccc(F)cc3)cc2)[C@H](CO)N1c1nc(-c2ccccc2)cs1, the rescue of myotube length was 25.1% (inactive).
For CCCC#Cc1ccc([C@H]2[C@@H](C#N)N(S(=O)(=O)c3cccc(F)c3)[C@H]2CO)cc1, the rescue of myotube length was 4.16% (inactive).
For N#C[C@@H]1[C@@H](c2ccc(-c3cccc(F)c3)cc2)[C@@H](CO)N1C(=O)NC1CCCC1, the rescue of myotube length was 3.2% (inactive).
In the case of O=C(C[C@H]1CC[C@@H]2[C@H](COC[C@@H](O)CN2Cc2ccc(Oc3ccccc3)cc2)O1)N1CCCCC1, the rescue of myotube length is reported as 15.6% (inactive).
With C/C=C/c1ccc([C@H]2[C@@H](CO)N(C(=O)NC3CCCC3)[C@H]2C#N)cc1 the rescue of myotube length was 12.4% (inactive).
In the case of C[C@@H]1CN([C@H](C)CO)C(=O)Cc2cc(NC(=O)CCCCCC(=O)Nc3ccccc3N)ccc2O[C@@H]1CN(C)Cc1ccc(Oc2ccccc2)cc1, the rescue of myotube length is reported as -9.32% (inactive).
With N#C[C@@H]1[C@@H](c2ccc(C#Cc3cccnc3)cc2)[C@@H](CO)N1C(=O)C1CCCC1 the rescue of myotube length was 5.74% (inactive).
With COc1ccc(S(=O)(=O)Nc2ccc3c(c2)CC(=O)N([C@H](C)CO)C[C@H](C)[C@@H](CN(C)Cc2ccc(Cl)c(Cl)c2)O3)cc1 the rescue of myotube length was -14.2% (inactive).
For COc1ccc(S(=O)(=O)Nc2cccc3c2O[C@H](CN(C)C(=O)Nc2ccc(F)cc2)[C@H](C)CN([C@@H](C)CO)C3=O)cc1, the rescue of myotube length was -2.59% (inactive).
In the case of CCCNC(=O)N1[C@H](C#N)[C@@H](c2ccc(C3=CCCCC3)cc2)[C@@H]1CO, the rescue of myotube length is reported as 22.8% (inactive).
For C[C@@H]1CN([C@@H](C)CO)C(=O)c2cc(NS(=O)(=O)c3ccc(Cl)cc3)ccc2O[C@H]1CN(C)C(=O)Nc1cccc2ccccc12, the rescue of myotube length was -1.68% (inactive).
For N#C[C@@H]1[C@@H](c2ccccc2-c2cccc(F)c2)[C@H](CO)N1C(=O)NC1CCCC1, the rescue of myotube length was 10.7% (inactive).
In the case of CN(C)C(=O)c1cccc(-c2ccc([C@@H]3[C@@H](C#N)N(C(=O)C4CCCC4)[C@@H]3CO)cc2)c1, the rescue of myotube length is reported as 13.3% (inactive).
In the case of C[C@H]1CN([C@@H](C)CO)C(=O)c2cc(NC(=O)Nc3cccc4ccccc34)ccc2O[C@H]1CN(C)Cc1ccc(C(=O)Nc2ccccc2N)cc1, the rescue of myotube length is reported as 13.4% (inactive).
For N#C[C@H]1[C@@H](c2ccc(-c3cccc(F)c3)cc2)[C@@H](CO)N1C(=O)NC1CCCC1, the rescue of myotube length was -4.89% (inactive).
In the case of C[C@@H]1CN([C@H](C)CO)C(=O)Cc2cc(NS(=O)(=O)c3cn(C)cn3)ccc2O[C@@H]1CN(C)Cc1ccc(Cl)c(Cl)c1, the rescue of myotube length is reported as 24% (inactive).

Same assay, conditions: C2C12 myotubes + simvastatin, MHC imaging tube length, 48 h; at 21 µM (top of the series)
For CC(C)CC#Cc1cnc2c(c1)C(=O)N([C@H](C)CO)C[C@H](C)[C@@H](CN(C)C(=O)Cc1ccccc1)O2, the rescue of myotube length was -0.121% (inactive).
For Cc1noc(C)c1S(=O)(=O)Nc1ccc2c(c1)CC(=O)N([C@H](C)CO)C[C@@H](C)[C@@H](CN(C)Cc1ccc(-c3ccccc3)cc1)O2, the rescue of myotube length was -14.9% (inactive).
